From ChEMBL document CHEMBL4765295, “Synthesis, pharmacological profile and 2D-QSAR studies of curcumin-amino acid conjugates as potential drug candidates” (Eur J Med Chem, 2020)
“And” between values parts separate entries of the source, which are not always exact repeats. Equal values may be shown once.

System: Mus musculus
Assay: Analgesic activity in albino mouse assessed protection against acetic acid-induced abdominal writhing at 10 mg/kg, ip pretreated for 1 hr followed by acetic acid challenge and measured starting 5 mins post acetic acid challenge for 10 mins relative to control (reference value: 0 %)
Type: functional
Settings: time 75 min, 1.25 h

Row | Structure (SMILES) | Activity [%]
1 | COc1cc(/C=C/C(=O)/C=C(O)/C=C/c2ccc(OC(=O)CNC(=O)OCC3c4ccccc4-c4ccccc43)c(OC)c2)ccc1OC(=O)CNC(=O)OCC1c2ccccc2-c2ccccc21 | 57.5

System: Mus musculus
Assay: Analgesic activity in albino mouse assessed as forepaw licking/jumping latency time at 10 mg/kg, ip measured after 30 mins by hot plate test (reference value: 5.02 +/- 0.09 sec)
Type: functional
Settings: 0.5 h

Row | Structure (SMILES) | Time [s]
2 | COc1cc(/C=C/C(=O)/C=C(O)/C=C/c2ccc(OC(=O)CNC(=O)OCC3c4ccccc4-c4ccccc43)c(OC)c2)ccc1OC(=O)CNC(=O)OCC1c2ccccc2-c2ccccc21 | 5.96

System: Rattus norvegicus
Assay: Antiinflammatory activity in Wistar rat model of carrageenan-induced paw edema assessed as reduction in thickness of paw edema at 10 mg/kg, ip pretreated for 1 hr followed by carrageenan challenge and measured after 1 hr (reference value: 2.41 +/-0.05 mm)
Type: functional
Settings: time 1 hr after carrageenan

Row | Structure (SMILES) | Activity [mm]
3 | COc1cc(/C=C/C(=O)/C=C(O)/C=C/c2ccc(OC(=O)CNC(=O)OCC3c4ccccc4-c4ccccc43)c(OC)c2)ccc1OC(=O)CNC(=O)OCC1c2ccccc2-c2ccccc21 | 1.45

System: Candida albicans
Assay: Antifungal activity against Candida albicans incubated for 18 to 24 hrs by CLSI method
Type: functional
Settings: time 18-24 hrs

Row | MIC | Structure (SMILES)
4 | 2 µg/mL and 2.16 µM | COc1cc(/C=C/C(=O)/C=C(O)/C=C/c2ccc(OC(=O)CNC(=O)OCC3c4ccccc4-c4ccccc43)c(OC)c2)ccc1OC(=O)CNC(=O)OCC1c2ccccc2-c2ccccc21

System: not listed separately
Assay: Toxicity in albino mouse assessed as induction of toxic symptoms at 50 to 100 mg/kg, ip measured after 24 hrs
Type: organism-based
Settings: in vivo, dose 50-100 mg/kg

Row | Structure (SMILES) | Activity
5 | COc1cc(/C=C/C(=O)/C=C(O)/C=C/c2ccc(OC(=O)CNC(=O)OCC3c4ccccc4-c4ccccc43)c(OC)c2)ccc1OC(=O)CNC(=O)OCC1c2ccccc2-c2ccccc21 | Non-Toxic

System: not listed separately
Assay: Ulcerogenic activity in fasted albino mouse assessed as incidence of gastric ulceration at 10 mg/kg, po for 3 days (reference value: 0 %)
Type: toxicity, organism-based
Settings: in vivo, 72 h, time 3 day

Row | Structure (SMILES) | Activity [%]
6 | COc1cc(/C=C/C(=O)/C=C(O)/C=C/c2ccc(OC(=O)CNC(=O)OCC3c4ccccc4-c4ccccc43)c(OC)c2)ccc1OC(=O)CNC(=O)OCC1c2ccccc2-c2ccccc21 | 0

System: Peritoneal macrophage
Assay: Antiinflammatory activity in […] mouse Peritoneal macrophages assessed as inhibition of LPS-induced NO production at 10 uM preincubated for 1 hr followed by LPS stimulation measured after 24 hrs by Griess method relative to control (reference value: 0.0 %)
Type: functional
Parameters: scale not given: the % may be the effect or the level left
Settings: time 25 hrs

Row | Structure (SMILES) | Activity [%]
7 | COc1cc(/C=C/C(=O)/C=C(O)/C=C/c2ccc(OC(=O)CNC(=O)OCC3c4ccccc4-c4ccccc43)c(OC)c2)ccc1OC(=O)CNC(=O)OCC1c2ccccc2-c2ccccc21 | 31.43

System: Mus musculus
Assay: Analgesic activity in albino mouse assessed as forepaw licking/jumping latency time at 10 mg/kg, ip measured after 120 mins by hot plate test (reference value: 2.62 +/- 0.06 sec)
Type: functional
Settings: 2 h

Row | Structure (SMILES) | Time [s]
8 | COc1cc(/C=C/C(=O)/C=C(O)/C=C/c2ccc(OC(=O)CNC(=O)OCC3c4ccccc4-c4ccccc43)c(OC)c2)ccc1OC(=O)CNC(=O)OCC1c2ccccc2-c2ccccc21 | 3.72

System: Rattus norvegicus
Assay: Antiinflammatory activity in Wistar rat model of carrageenan-induced paw edema assessed as reduction in thickness of paw edema at 10 mg/kg, ip pretreated for 1 hr followed by carrageenan challenge and measured after 3 hrs (reference value: 1.79 +/-0.07 mm)
Type: functional
Settings: time 4 hrs

Row | Structure (SMILES) | Activity [mm]
9 | COc1cc(/C=C/C(=O)/C=C(O)/C=C/c2ccc(OC(=O)CNC(=O)OCC3c4ccccc4-c4ccccc43)c(OC)c2)ccc1OC(=O)CNC(=O)OCC1c2ccccc2-c2ccccc21 | 0.47

System: Salmonella typhimurium
Assay: Antibacterial activity against Salmonella typhimurium ATCC 19430 incubated for 18 hrs by agar dilution assay
Type: functional, Salmonella enterica subsp. enterica serovar Typhimurium
Settings: Salmonella enterica

Row | MIC | Structure (SMILES)
10 | 1 µg/mL and 1.08 µM | COc1cc(/C=C/C(=O)/C=C(O)/C=C/c2ccc(OC(=O)CNC(=O)OCC3c4ccccc4-c4ccccc43)c(OC)c2)ccc1OC(=O)CNC(=O)OCC1c2ccccc2-c2ccccc21

System: Pseudomonas aeruginosa
Assay: Antibacterial activity against Pseudomonas aeruginosa ATCC 27853 incubated for 18 hrs by agar dilution assay
Type: functional
Settings: not given

Row | MIC | Structure (SMILES)
11 | 1 µg/mL and 1.08 µM | COc1cc(/C=C/C(=O)/C=C(O)/C=C/c2ccc(OC(=O)CNC(=O)OCC3c4ccccc4-c4ccccc43)c(OC)c2)ccc1OC(=O)CNC(=O)OCC1c2ccccc2-c2ccccc21

System: Rattus norvegicus
Assay: Anti-inflammatory activity in Wistar rat assessed as inhibition of carrageenan-induced paw edema at 10 mg/kg, ip pretreated for 1 hr followed by carrageenan challenge and measured after 4 hr relative to indomethacin
Type: functional
Settings: time 5 hrs

Row | Structure (SMILES) | inhibition in vivo at 10 mg/kg [%]
12 | COc1cc(/C=C/C(=O)/C=C(O)/C=C/c2ccc(OC(=O)CNC(=O)OCC3c4ccccc4-c4ccccc43)c(OC)c2)ccc1OC(=O)CNC(=O)OCC1c2ccccc2-c2ccccc21 | 91

System: not listed separately
Assay: Ulcerogenic activity in fasted albino mouse assessed as average number of ulcers in gastric mucosa at 10 mg/kg, po for 3 days (reference value: 0)
Type: toxicity, organism-based
Settings: in vivo, 72 h, time 3 day

Row | Structure (SMILES) | Activity
13 | COc1cc(/C=C/C(=O)/C=C(O)/C=C/c2ccc(OC(=O)CNC(=O)OCC3c4ccccc4-c4ccccc43)c(OC)c2)ccc1OC(=O)CNC(=O)OCC1c2ccccc2-c2ccccc21 | 0

System: Mus musculus
Assay: Analgesic activity in albino mouse assessed as protection at 10 mg/kg, ip measured after 120 mins by hot plate test relative to indomethacin
Type: functional
Settings: 2 h

Row | Structure (SMILES) | Activity [%]
14 | COc1cc(/C=C/C(=O)/C=C(O)/C=C/c2ccc(OC(=O)CNC(=O)OCC3c4ccccc4-c4ccccc43)c(OC)c2)ccc1OC(=O)CNC(=O)OCC1c2ccccc2-c2ccccc21 | 100

System: Rattus norvegicus
Assay: Anti-inflammatory activity in Wistar rat assessed as inhibition of carrageenan-induced paw edema at 10 mg/kg, ip pretreated for 1 hr followed by carrageenan challenge and measured after 24 hr relative to control (reference value: 0.00 +/-0.3 %)
Type: functional
Settings: time 25 hrs

Row | Structure (SMILES) | inhibition in vivo at 10 mg/kg [%]
15 | COc1cc(/C=C/C(=O)/C=C(O)/C=C/c2ccc(OC(=O)CNC(=O)OCC3c4ccccc4-c4ccccc43)c(OC)c2)ccc1OC(=O)CNC(=O)OCC1c2ccccc2-c2ccccc21 | 82

System: Peritoneal macrophage
Assay: Antiinflammatory activity in […] mouse Peritoneal macrophages assessed as reduction in LPS-induced NO production by measuring reduction in stimulation index at 10 uM preincubated for 1 hr followed by LPS stimulation measured after 24 hrs by Griess method (reference value: 27.31 +/- 2.56 uM)
Type: functional
Settings: time 25 hrs

Row | Structure (SMILES) | Activity [µM]
16 | COc1cc(/C=C/C(=O)/C=C(O)/C=C/c2ccc(OC(=O)CNC(=O)OCC3c4ccccc4-c4ccccc43)c(OC)c2)ccc1OC(=O)CNC(=O)OCC1c2ccccc2-c2ccccc21 | 18.73

System: Splenocyte
Assay: Immunomodulatory activity in Swiss albino mouse splenocytes assessed as cell viability at 10 uM by measuring stimulation index incubated for 72 hrs in presence of mitogenic stimulus phytohaemagglutinin by MTT assay (reference value: 1.00 +/- 0.24)
Type: functional
Settings: not given

Row | Structure (SMILES) | Activity_index
17 | COc1cc(/C=C/C(=O)/C=C(O)/C=C/c2ccc(OC(=O)CNC(=O)OCC3c4ccccc4-c4ccccc43)c(OC)c2)ccc1OC(=O)CNC(=O)OCC1c2ccccc2-c2ccccc21 | 1.76

System: Rattus norvegicus
Assay: Anti-inflammatory activity in Wistar rat assessed as inhibition of carrageenan-induced paw edema at 10 mg/kg, ip pretreated for 1 hr followed by carrageenan challenge and measured after 2 hr relative to control (reference value: 0.00 +/-0.03 %)
Type: functional
Settings: time 3 hrs

Row | Structure (SMILES) | inhibition in vivo at 10 mg/kg [%]
18 | COc1cc(/C=C/C(=O)/C=C(O)/C=C/c2ccc(OC(=O)CNC(=O)OCC3c4ccccc4-c4ccccc43)c(OC)c2)ccc1OC(=O)CNC(=O)OCC1c2ccccc2-c2ccccc21 | 62

System: Mus musculus
Assay: Analgesic activity in albino mouse assessed as forepaw licking/jumping latency time at 10 mg/kg, ip measured after 90 mins by hot plate test (reference value: 2.72 +/- 0.01 sec)
Type: functional
Settings: 1.5 h

Row | Structure (SMILES) | Time [s]
19 | COc1cc(/C=C/C(=O)/C=C(O)/C=C/c2ccc(OC(=O)CNC(=O)OCC3c4ccccc4-c4ccccc43)c(OC)c2)ccc1OC(=O)CNC(=O)OCC1c2ccccc2-c2ccccc21 | 3.82
